{
  "source": "patent US8309535B2",
  "about": "“Compositions and methods to treat recurrent medical conditions” (priority 2003, dated 2012)",
  "key": {"[1]": {"system": "subjects having specific phobias", "details": "cited from earlier work"}, "[2]": {"details": "cited from earlier work"}, "[3]": {"system": "subjects on chronic dosing schedules (chronically ill with tuberculosis)", "details": "500-1000 mg/day, side effects correlate with dosage amount; cited from earlier work"}, "[4]": {"system": "subject afflicted with recurring neuropathic pain", "experiment": "Example 1: treatment of a subject with recurring neuropathic pain", "assay_type": "in vivo, human", "description": "After seven days, the dose of amitriptyline was doubled to 20 mg."}, "[5]": {"system": "subject with paralytic sexual performance anxiety", "details": "subject unresponsive to purely behavioral interventions; cited from earlier work"}},
  "note": "Where a name gives a salt, the structure may show the parent alone.",
  "data": [
    {"smiles": "N[C@@H]1CON=C1O", "note": "[DCS, D-cycloserine]", "values": [
      {"measurement": "average number of psychotherapy sessions to reach a clinical cure", "setting": "[1]; DCS in conjunction with psychotherapy, psychotherapy alone required an average of eight sessions", "value": "two"},
      {"measurement": "fewer therapy sessions needed to reach clinical cure", "setting": "[1]; DCS with cognitive behavioral therapy sessions, phobic disorders", "value": 75, "unit": "%"},
      {"measurement": "time of peak blood levels after dosing", "setting": "[2]; after dosing", "value": "3 to 8", "unit": "h"},
      {"measurement": "half-life", "setting": "[2]; in vivo", "value": 10, "unit": "h"},
      {"measurement": "infrequent side effects", "setting": "[3]", "value": "drowsiness, headache, confusion, tremor, vertigo, and memory difficulties, paresthesias, and seizure"}
    ]},
    {"smiles": "CN(C)CCC=C1c2ccccc2CCc2ccccc21", "note": "[amitriptyline hydrochloride]", "values": [
      {"measurement": "effect on pain", "setting": "[4]; 10 mg per day for seven days", "value": "little effect on the pain"},
      {"measurement": "effect on pain", "setting": "[4]; 20 mg per day, after two days on the higher dose", "value": "substantially subsided"}
    ]},
    {"smiles": "CCCc1nn(C)c2c(=O)[nH]c(-c3cc(S(=O)(=O)N4CCN(C)CC4)ccc3OCC)nc12", "note": "[sildenafil]", "values": [
      {"measurement": "response to pharmaceutical treatment", "setting": "[5]", "value": "responded to pharmaceutical treatment"}
    ]}
  ]
}
